Data: patent US9370504B2, “Pharmaceutical composition containing 1,2-dithiolthione derivative for preventing or treating disease caused by overexpression of LXR-α” (SNU R&DB FOUNDATION, priority 2008, dated 2016)
Where two headings read alike, the source gives them in different places.

Legend:
SREBP-1 [1] = settings: H4IIE cells, FIG. 5A
SREBP-1 [2] = settings: HepG2 cells, FIG. 5A
SREBP-1 [3] = settings: rat primary cultured liver cells, FIG. 5A
ACC = settings: high lipid diet 10 weeks; oltipraz 10-30 mg/kg, 3 times/week, last four weeks; p<0.01; FIG. 9
Method: (§1) Male C57BL/6 mice (average weight of 25 to 30 g) as test animals were purchased from Charles River Orient (Seoul, Korea). For at least one week before being tested, the mice were acclimatized to the surrounding environment in the animal test research center of the College of Pharmacy, Seoul National University, that is, humidity of 55±5%, temperature of 22±2° C., and controlled ventilation. The mice were repeatedly and alternately exposed to light and then placed in the dark for a time interval of 12 hours (from 7 A.M. to 7 P.M). […] The weight and state of the mice were measured once a week. Two groups of mice were respectively raised with a high lipid diet (Dyets Inc., Bethlehem) and a normal diet for 10 weeks. For the last four weeks in each case, oltipraz (10 or 30 mg/kg, 3 times/week) was administered to the mice (FIG. 1). Each group consisted of a total of 10 mice.
(§2) Total RNA (2 μg) and d(T)16 primer which were extracted from the liver of mice, and an AMV reverse transcriptase were used to obtain cDNA. The relative amounts of genes were quantified by realtime RT-PCR using a CyBr green dye. The realtime RT-PCR was Light-cycler^2.0 produced by Roche (Mannheim, Germany).

FAS = settings: high lipid diet 10 weeks; oltipraz 10-30 mg/kg, 3 times/week, last four weeks; p<0.01; FIG. 9
Method: as §1, §2

LXRα = settings: high lipid diet 10 weeks; oltipraz 10-30 mg/kg, 3 times/week, last four weeks; p<0.01; FIG. 2
Method: as §1, §2

SREBP-1 [4] = settings: high lipid diet 10 weeks; oltipraz 10-30 mg/kg, 3 times/week, last four weeks; p<0.01; FIG. 4
Method: as §1, §2

[5] = Method: as §1
LXRα/RXRα complex = LXRα/RXRα complex (Homo sapiens, UniProt Q13133); settings: LXRα and RXRα overexpressed; nuclear fraction; FIG. 3B
Method: Whether a binding capability of LXRE is changed by oltipraz treatment was identified by gel-shift assay. LXRE double-stranded oligonucleotide of a SREBP-1c gene was labeled with a radio active isotope at 5′-terminal by using [γ-^32P]ATP and T4 polynucleotide kinase, and then the labeled probe (1 ml, >10^6 cpm) was reacted with nuclear fraction proteins in a binding buffer solution. The reaction solution was subjected to electrophoresis in 4% polyacrylamide gel and then assayed by autoradiography. […] DNA binding specificity was identified by cold probe titration and supershift assay. For the cold probe titration, 20 times greater (molar base) un-labeled oligonucleotides were reacted in advance.

SREBP-1 [6] = settings: HepG2 cells treated with T0901317; nuclear fraction; FIG. 5B
[7] = within 12 hours after treatment
[8] = whole cell extract, co-treated with T0901317

Chain of LXRα/RXRα complex (Q13133 whole entry, one chain of several): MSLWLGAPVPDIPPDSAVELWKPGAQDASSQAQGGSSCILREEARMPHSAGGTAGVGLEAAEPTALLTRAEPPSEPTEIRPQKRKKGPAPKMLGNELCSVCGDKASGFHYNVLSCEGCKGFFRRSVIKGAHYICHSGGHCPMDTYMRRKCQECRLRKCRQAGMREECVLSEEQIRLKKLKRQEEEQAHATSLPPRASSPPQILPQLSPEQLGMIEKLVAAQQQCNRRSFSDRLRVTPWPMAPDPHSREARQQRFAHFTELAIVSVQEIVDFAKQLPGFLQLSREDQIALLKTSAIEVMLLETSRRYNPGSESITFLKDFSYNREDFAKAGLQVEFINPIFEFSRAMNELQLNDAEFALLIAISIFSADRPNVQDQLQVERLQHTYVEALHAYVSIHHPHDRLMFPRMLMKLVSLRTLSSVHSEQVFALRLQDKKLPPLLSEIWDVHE

SMILES | expression of SREBP-1 protein after LXRα activator alone (SREBP-1 [1]; [7]) | expression of SREBP-1 protein after LXRα activator alone (SREBP-1 [2]; [7]) | expression of SREBP-1 protein after LXRα activator alone (SREBP-1 [3]; [7]) | increase in ACC expression (mRNA, relative to normal diet group) (ACC) | increase in FAS expression (mRNA, relative to normal diet group) (FAS) | increase in LXRα expression (mRNA, relative to normal diet group) (LXRα) | increase in SREBP-1 expression (mRNA, relative to normal diet group) (SREBP-1 [4]) | red part dyed with Oil-Red-O in liver tissue ([5]; HFD+Oltipraz versus HFD+vehicle, FIG. 11) | amount of triglyceride in liver tissues ([5]; high lipid diet 10 weeks, oltipraz administered, p<0.01, FIG. 10) | binding capability of LXRα with respect to DNA (LXRE) (LXRα/RXRα complex) | T0901317-increased expression of SREBP-1 protein (SREBP-1 [1]; whole cell extract, co-treated with T0901317, FIGS. 6-8) | T0901317-increased expression of SREBP-1 protein (SREBP-1 [2]; [8]) | T0901317-increased expression of SREBP-1 protein (SREBP-1 [3]; [8]) | increased nuclear localization of SREBP-1 (SREBP-1 [6])
O=S(=O)(c1ccccc1)N(CC(F)(F)F)c1ccc(C(O)(C(F)(F)F)C(F)(F)F)cc1 [compound 10901317] | remarkably increased | remarkably increased | remarkably increased | – | – | – | – | – | – | – | – | – | – | –
Cc1c(-c2cnccn2)ssc1=S [oltipraz, 4-methyl-5-(2-pyrazinyl)-1,2-dithiol-3-thione] | – | – | – | inhibited | inhibited | inhibited | inhibited | remarkably reduced | significantly reduced | substantially decreased | concentration-dependently reduced | concentration-dependently reduced | concentration-dependently reduced | concentration-dependently reduced
